Melting point data for 85 molecules are collected here from a melting point compilation (Tetko et al.; mined from patent text by program, amines drawn as free bases though some values may be those of a salt).

Some results are limits rather than exact numbers.

One may read the melting point as the temperature, or range, at which the solid turns liquid. Molecule `COc1ccc(CNC(=O)Nc2ccc(CN3C(=O)[C@H]4CCC[C@H]4N(C(=O)CCl)c4ccccc43)cc2)cc1` (relative stereo) displayed a melting point of 225 to 226 °C. As to `CC(C)(C)OC(=O)CSc1cccc(-c2nc(=O)c3ccccc3s2)n1`, the melting point came out at 170 °C.

`NC(=NO)c1ccc(C(=O)O)cn1` registered a melting point of more than 300 °C. For `COc1ccccc1CC(=O)c1ccc(C(C)C)c(OS(N)(=O)=O)c1C(C)C` the value was 159 to 161 °C; for `NNC(=O)C(Cc1cccs1)NC(=O)[C@H](Cc1cccc2ccccc12)NC(=O)OCc1ccccc1` (mixture of isomers), 163 to 164 °C; for `COc1cc(C(C)=O)ccc1OCCCCCl`, 68.5 to 70.5 °C. For `Cc1nc2c3ccccc3ccn2c1Cc1nnn[nH]1` the value was 256 to 257 °C. As for `O=C1[C@@H]2CSC(c3ccccc3)N2C(=O)N1Cc1ccccc1` (stereo not given in full), the melting point turned out to be 79 °C. On to `CC(C)c1nn(-c2ccc(C(F)(F)F)cn2)cc1CCCOc1cc(CCC(=O)O)n(C(C)C)n1`, for which the melting point lay in the range of 130 to 131 °C. The molecule `C=CCc1cccc2c(=O)cc(-c3ccc(F)cc3)oc12` displayed a melting point of 98 to 100 °C. `CCCCc1ccc2c(c1)-c1[nH]c(C(=O)OC)cc(=O)c1CS2` displayed a melting point of 144 to 146 °C. For `NN(CCO)C(=O)Nc1ccc(Cl)cc1` the value was 141 to 142 °C. For `O=C(Nc1ccncc1)c1ccc(-c2ccc3nnn(Cc4ccc5ncccc5c4)c3n2)cc1F` the value was 217 to 219 °C.

As for `O=c1[nH]c2ncc(-c3ccc(CO)cc3)nc2n1CC1CCCCC1`, the melting point fell in the range of 275 to 277 °C. For `CCOC(=O)C(=CNn1cnnc1)C(=O)c1cc(F)c(F)cc1F` the value was 239 to 240 °C; for `COC(=O)[C@H](Cc1cncn1C)NC(=O)C(Cc1cccc2ccccc12)Cc1cccc2ccccc12`, 199 to 200 °C; for `CC(C)(C)n1cnc(-c2ccc(F)cc2)c1-c1ccncc1`, 199 °C. `Cc1ccc(Oc2ccc([N+](=O)[O-])cc2)c(O)c1` had a melting point of 95 to 97 °C. For `CCCC(NS(=O)(=O)c1ccc(Cl)cc1)C(=S)Nc1ccc(CCC(=O)OC)cc1` (racemic) the value was 116 to 118 °C; for `C[C@H](NS(=O)(=O)c1ccc(-c2c(C#N)c3ccc(C4CC4)cc3n2-c2ncccn2)nc1)C(F)(F)F`, 181 to 184 °C.

`CC1=C(C(=O)OCCOc2ccccc2)C(c2ccccc2C(F)(F)F)c2c(ccnc2OC(C)C)N1` (stereo not given): the melting point fell in the range of 110 to 113 °C. In turn, `COc1ccc(C(=O)N2CCc3cc(OCc4ccccc4)c(OC)cc3C2)cc1` gave a melting point of 126 to 127 °C. The molecule `COc1nnc2n1C=Cc1ccccc1C2` displayed a melting point of 160 to 161 °C. In turn, `COc1ccc(C=C2CS(=O)(=O)CC3=C2N=C2SCCN2C3c2ccc(OC)cc2)cc1` (stereo not given) showed a melting point of 235 to 240 °C. With `CN(CCCNC(=S)c1cc(C(C)(C)C)c(O)c(C(C)(C)C)c1)CCOc1ccc2c(c1)OCO2` the figure was 114 to 115 °C; with `CCCC1=C(C(=O)OCC)C(c2cccc(Cl)c2Cl)c2c[nH]nc2N1` (stereo not given), 220 °C. For `CCN(CC)c1cccc(CCC(N)=O)c1` the value was 59 °C; for `CC(C)c1cccc(C(C)C)c1NC(=O)C(c1ccccc1)n1nnc(C(c2ccccc2)c2ccccc2)n1` (stereo not given), 180 to 183 °C; for `O=C(NC1CC1)c1cccc(-c2cccc3oc(Cc4cccc(C(F)(F)F)c4)cc23)c1`, 120 to 121 °C. For `CCOC(=O)CC(NC(=O)c1ccccc1)C(=O)c1cccs1` (stereo not given) the value was 75 °C; for `CC(C)(C)c1ccc(O)cc1Cl`, 65 to 67 °C; for `O=C(Nc1ccc(Cl)cc1)Nc1c(C(O)(C(F)(F)F)C(F)(F)F)ccc2ccccc12`, 210 to 212 °C. As for `CCN(CCCCCN(CCCCCN(CC)S(=O)(=O)c1c(C)cc(C)cc1C)S(=O)(=O)c1c(C)cc(C)cc1C)S(=O)(=O)c1c(C)cc(C)cc1C`, the melting point was 60 to 62 °C. For `CC(C)OP(=O)(Cc1c(C(C)(C)C)cc(O)cc1C(C)(C)C)OC(C)C` the value was 100 °C; for `CC(=O)OCC1OC(n2cc(C3=C(c4c[nH]c5ncccc45)C(=O)N(COCc4ccccc4)C3=O)c3ccccc32)C(OC(C)=O)C(OC(C)=O)C1OC(C)=O` (stereo not given), 115 to 117 °C.

Consider `CCOP(=O)(Cc1cccc2cccc(CP(=O)(OCC)OCC)c12)OCC`, for which the melting point lay within 55 to 56 °C. For the molecule `CC(C)(C)C1(COc2ccc(Cl)cc2)OS(=O)NC1=O` (stereo not given), the melting point was in the range of 132 to 134 °C. For the molecule `CC(=NNC(=S)N1CC2CCC(CC2)C1)c1ccccn1`, the melting point is 156 °C. In turn, `CS(=O)(=O)c1ccc(C(Cc2ccc(F)cc2Cl)C(=O)Nc2nc3ccccc3o2)cc1` (stereo not given) gave a melting point of 127 to 128 °C. With `O=C1c2ccccc2C(O)(c2ccc(F)cc2)C2=NC3CCCCC3N12` (stereo not given) the figure was 203 to 205 °C; with `O=C(CCl)N1CC(c2ccccc2)c2ccccc21` (stereo not given), 76 to 78 °C. The molecule `CN1CCN(c2cccc3c2C[C@H](NC(=O)c2ccc(N4CCSCC4)cc2)CC3)CC1` yielded a melting point of 190 to 191 °C. Consider `Cc1cc2c(c(C)c1NCc1ccccc1)CC(C)(C)O2`, for which the melting point was in the range of 80 to 81 °C. With `Cc1nc(O)c(C)c(NCC2CC2)n1` the figure was 227 to 228 °C. With `CC(=O)Nc1nc2c(s1)-c1c(cnn1C(N)=O)CC2` the figure was 265 to 270 °C; with `CC(Cc1ccc(Br)cc1)C(=O)O` (stereo not given), 69 to 70 °C.

Molecule `O=C(O)CCCc1cc2nc(Cl)ccc2n1S(=O)(=O)c1ccccc1OC(F)(F)F` returned a melting point of 138 °C. As for `COC(=O)COc1cc2c(c(Cl)c1Cl)C(=O)C(c1ccccc1)C2` (stereo not given), the melting point was 152 to 153 °C. For `CC1CC(=O)c2cc(OCc3ccc4ccccc4n3)cnc2C1` (stereo not given) the value was 141 to 144 °C; for `CCc1ncnc(N[C@H]2CC[C@@H](CO)CC2)c1Cl`, 71 to 72 °C. For `Cc1c(O[Si](C)(C)C(C)(C)C)cc(O[Si](C)(C)C(C)(C)C)c(C)c1C(=O)OCC(Cl)(Cl)Cl` the value was 90 to 92 °C; for `CCN(CC)CCCNc1nnc(-c2ccc(F)c(F)c2Nc2ccc(I)cc2F)o1`, 116 to 118 °C; for `C#Cc1cncc(C2CCC(=O)N2C)c1` (stereo not given), 83 to 84 °C. `CC(C)(C)OC(=O)N1CCN(c2c(F)cc(NC(=O)OCc3ccccc3)cc2F)CC1` gave a melting point of 171 to 172 °C. In turn, `CCOP(=O)(C[C@H]1CCN[C@@H](C(N)=O)C1)OCC` (relative stereo) gave a melting point of 155 to 158 °C. As to `COC(=O)c1ccc(I)cc1S(N)(=O)=O`, the melting point lay within 176 to 177 °C. `COCCNC(=O)c1cccc(-c2cccc3cc(Cc4cccc(C(F)(F)F)c4)sc23)c1F` yielded a melting point of 94 to 95 °C.

On to `COc1cccc(-c2c(C)c(NC(=O)CC(C)(C)C)c(C)c3c2OCC3c2ccc(C(C)C)cc2)c1` (stereo not given), for which the melting point lay within 209 to 210 °C. With `CC(C)(C)c1cc(-c2cccs2)cc2c1OCC2(C)C` the figure was 61 to 63 °C.

`COc1cccc(C=C2NC(=O)NC2=O)c1OCc1ccccc1` had a melting point of 210 to 212 °C. Take `COCCOc1ccc(/C=C/COC(=O)NS(=O)(=O)N2CCCC2)c(Oc2ncc(C(F)(F)F)cc2Cl)c1`: the melting point lay within 123 to 124 °C. With `COc1ccc(CCC2COC(Cn3ccnc3)(c3ccc(Cl)cc3Cl)O2)cc1` (stereo not given) the figure was 131 °C; with `O=C(O)c1cc2cc(Cl)c(Cl)cc2nc1N[C@@H](Cc1ccccc1)C(=O)O`, 141 to 143 °C. With `N#Cc1c(Cl)cnc2cc(I)sc12` the figure was 209 to 211 °C; with `CC1=NN(CC2CC2)CC2=C3C1=NN(c1ccc(C(C)C)cc1Br)C(=O)N3CC2`, 89 to 90 °C. For the molecule `CN1CC=C(c2c[nH]c3ccc(N)cc23)CC1`, the melting point lay within 200 to 203 °C. For `Cc1ccc2c(c1)CCC2=NNC(=N)N` the value was more than 275 °C; for `COc1ccccc1C(=O)NCCc1ccc(-c2ccc(OC(C)(C)C(=O)O)cc2)cc1`, 133 °C. The molecule `O=C(O)C1Cc2c(c(Cl)cc3c(-c4c(F)cccc4F)noc23)O1` (stereo not given) showed a melting point of 240 to 241 °C.

In turn, `Cc1[nH]c(=O)n(CCC(C(=O)NO)N(C)S(=O)(=O)c2ccc(Oc3ccccc3)cc2)c(=O)c1F` (stereo not given) returned a melting point of 196 to 198 °C. Turning to `COc1cccc(O[C@@H]2COc3ccc(OCc4ccccn4)cc3[C@@H]2O)c1` (relative stereo), the melting point fell in the range of 105 to 107 °C. For `O=[N+]([O-])c1ccc(NN=Cc2cnccn2)nc1` the value was 271 to 272 °C; for `CS(=O)(=O)c1ccc(-c2nn(CC3CC3)c(=O)cc2-c2ccc(Cl)cc2)cc1`, 140 °C; for `O=S(=O)(c1ccccc1)C(CC(F)(F)F)c1ccc(C(O)(C(F)(F)F)C(F)(F)F)cc1` (stereo not given), 151 °C. For `c1cnc2ccc(Cn3nnc4ccc(-c5cnn(C6CCNCC6)c5)nc43)cc2c1` the value was 188 to 191 °C. `CC(C)C[C@@H](CC(=O)O)NC(=O)[C@@H](CS)C(F)(F)F` yielded a melting point of 155 to 156 °C. For `CC(=O)Nc1cnc(-c2ccccc2)nc1Cl`, the melting point lay in the range of 179 to 180 °C.

`CCc1oc(C(c2ccccc2)c2ccccc2)nc1CC1CCc2c(cccc2OCC(=O)O)C1` (stereo not given) returned a melting point of 150 to 152 °C. `Cc1c2c(cn1C)CN=C(c1ccccc1Cl)c1cc(Cl)ccc1-2` displayed a melting point of 200 to 202 °C. For `O=c1c2cnc(N3CCOCC3)nc2sn1CCN1CCCCC1` the value was 98 to 100 °C; for `O=C(COc1ccc(C2=NNC(=O)NC2)cc1)NCCN1CCOCC1`, 216 to 217 °C; for `CN1CCOC1=C(C#N)C=C1Nc2ccccc2C1=O`, 222 to 226 °C. The molecule `CCCCSC(Cn1cncn1)c1ccc(Cl)cc1Cl` (stereo not given) had a melting point of 143 °C. With `COc1ccc(F)c(C=C2c3ccccc3CCc3ccccc32)c1` the figure was 111 °C. With `O=c1[nH]c2cc(Cl)ccc2c(=O)n1S(=O)(=O)c1cc(Cl)ccc1Cl` the figure was 254 to 256 °C.
